# Measurements published in the supplement of paper PMC10307832.
# Assays:
# Test in all cases: relative viability (nuclei count vs DMSO), 5 days (fraction); higher = more cells survive
# [1] = compound: COc1cccc2cc(-c3nc([C@H]4CC[C@H](C(=O)O)CC4)n4ncnc(N)c34)[nH]c12 [OSI-027] + Nc1nc2[nH]cc(CCc3ccc(C(=O)N[C@@H](CCC(=O)O)C(=O)O)cc3)c2c(=O)[nH]1 [Pemetrexed] (partner 0.2 µM)
# Summary of the method: (§1)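 Relative viability was taken as the ratio of nuclei in treated wells to nuclei in vehicle wells. Lung cancer cell lines in 1536-well plates received compounds by pin tool one day after seeding, either one drug alone or a fixed anchor-drug dose plus five library-drug doses (not always all listed) in √10 steps. Nuclei were counted on 4× images after 5 days of treatment, and values are medians of duplicate plates.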
# [2] = compound: Cc1nc(NC(=O)N2CCC[C@H]2C(N)=O)sc1-c1ccnc(C(C)(C)C(F)(F)F)c1 [Alpelisib] + Cc1nc(Nc2ncc(C(=O)Nc3c(C)cccc3Cl)s2)cc(N2CCN(CCO)CC2)n1 [Dasatinib] (partner 0.075 µM)
# Summary of the method: as §1
# [3] = compound: CCCS(=O)(=O)Nc1ccc(F)c(C(=O)c2c[nH]c3ncc(-c4ccc(Cl)cc4)cc23)c1F [Vemurafenib] + N=C(N)NC(=N)NCCc1ccccc1 [Phenformin] (partner 250 µM)
# Summary of the method: as §1
# [4] = compound: COc1cccc2cc(-c3nc([C@H]4CC[C@H](C(=O)O)CC4)n4ncnc(N)c34)[nH]c12 [OSI-027] + CC(=O)Nc1cccc(-n2c(=O)n(C3CC3)c(=O)c3c(Nc4ccc(I)cc4F)n(C)c(=O)c(C)c32)c1 [Trametinib] (partner 0.02 µM)
# Summary of the method: as §1
cell line,measurement,setting,value
UMC-11,relative viability,[1]; first compound 0.01 µM,0.994
same,relative viability,[1]; first compound 0.03162 µM,0.77
same,relative viability,[1]; first compound 0.1 µM,0.658
same,relative viability,[1]; first compound 0.3162 µM,0.585
same,relative viability,[1]; first compound 1 µM,0.444
same,relative viability,[2]; first compound 0.04 µM,0.426
same,relative viability,[2]; first compound 0.1265 µM,0.501
same,relative viability,[2]; first compound 0.4 µM,0.537
same,relative viability,[2]; first compound 1.265 µM,0.455
same,relative viability,[2]; first compound 4 µM,0.473
same,relative viability,[3]; first compound 0.03162 µM,0.29
same,relative viability,[3]; first compound 0.1 µM,0.315
same,relative viability,[3]; first compound 0.3162 µM,0.227
same,relative viability,[3]; first compound 1 µM,0.315
same,relative viability,[4]; first compound 0.01 µM,0.727
same,relative viability,[4]; first compound 0.03162 µM,0.772
same,relative viability,[4]; first compound 0.1 µM,0.579
same,relative viability,[4]; first compound 0.3162 µM,0.472
same,relative viability,[4]; first compound 1 µM,0.392
